Values quoted from earlier work as cited in patent publication US5607940A (priority 1994, dated 1997).

Key:
[1] = silver anode; listed as MHCl, hydrochloride
[2] = in vivo

Row | Compound | utilization of morphine [1] | time to clinically effective blood levels [2]
1 | CN1CC[C@]23c4c5ccc(O)c4O[C@H]2[C@@H](O)C=C[C@H]3[C@H]1C5.Cl [morphine hydrochloride] | about 10% | –
2 | CN1CC[C@]23c4c5ccc(O)c4O[C@H]2[C@@H](O)C=C[C@H]3[C@H]1C5 [morphine] | – | 15 to 20 min
